Columns and labels:
[1] = biological target: T1, Protein farnesyltransferase (Rattus norvegicus) (UniProt Q04631+Q02293); experiment: Percentage in vitro inhibition of rat protein farnesyltransferase at 50 uM; type: protein-complex assay
[2] = system: Protein farnesyltransferase (Trypanosoma brucei); experiment: Percentage in vitro inhibition of recombinant Trypanosoma brucei protein farnesyltransferase at 2 uM
[3] = biological target: T2, geranylgeranyltransferase type-I (Rattus norvegicus) (UniProt P53610+Q04631); experiment: Percentage in vitro inhibition of rat protein geranylgeranyltransferase type-I at 50 uM; type: protein-complex assay
[4] = biological target: T1, Protein farnesyltransferase (Rattus norvegicus); experiment: Percentage in vitro inhibition of rat protein farnesyltransferase at 5 uM; type: protein-complex assay
[5] = system: Protein farnesyltransferase (Trypanosoma brucei); experiment: Percentage in vitro inhibition of recombinant Trypanosoma brucei protein farnesyltransferase at 5 uM
[6] = biological target: T2, geranylgeranyltransferase type-I (Rattus norvegicus); experiment: Percentage in vitro inhibition of rat protein geranylgeranyltransferase type-I at 5 uM; type: protein-complex assay
Trypanosoma brucei = experiment: In vitro dose required to inhibit growth of Trypanosoma brucei; type: functional; conditions: read-out: ED50 (the source's name)
[7] = system: Protein farnesyltransferase (Trypanosoma brucei); experiment: Percentage in vitro inhibition of recombinant Trypanosoma brucei protein farnesyltransferase at 100 uM
[8] = biological target: T2, geranylgeranyltransferase type-I (Rattus norvegicus); experiment: Percentage in vitro inhibition of rat protein geranylgeranyltransferase type-I at 100 uM; type: protein-complex assay
[9] = biological target: T1, Protein farnesyltransferase (Rattus norvegicus); experiment: Percentage in vitro inhibition of rat protein farnesyltransferase at 100 uM; type: protein-complex assay
[10] = biological target: T2, geranylgeranyltransferase type-I (Rattus norvegicus); experiment: Percentage in vitro inhibition of rat protein geranylgeranyltransferase type-I at 2 uM; type: protein-complex assay
[11] = biological target: T1, Protein farnesyltransferase (Rattus norvegicus); experiment: Percentage in vitro inhibition of rat protein farnesyltransferase at 2 uM; type: protein-complex assay

| Compound | inhibition [1] [%] | inhibition [2] [%] | inhibition [3] [%] | inhibition [7] [%] | inhibition [8] [%] | inhibition [9] [%] | also measured |
| --- | --- | --- | --- | --- | --- | --- | --- |
| CCN(CC)C1=NS(=O)(=O)C(C2CC(c3c(C)c(C)c(C)c(C)c3C)=NO2)=C1c1ccc(OC)cc1 (stereo unspecified) | 7 | 13 | – | – | – | – | – |
| CCN(CC)C1=NS(=O)(=O)C(C2CC(c3ccc(Cl)cc3)=NO2)=C1c1ccc(OC)cc1 (stereo unspecified) | 8 | 0 | 20 | – | – | – | – |
| CCN(CC)C1=NS(=O)(=O)C=C1c1ccc(OC)cc1 | – | – | – | – | – | – | inhibition [4]: 0%; inhibition [5]: 0%; inhibition [6]: 12% |
| CCN(CC)C1=NS(=O)(=O)C(C2CC(c3c(C)c(Cl)c(C)c(Cl)c3C)=NO2)=C1c1ccc(OC)cc1 (stereo unspecified) | 2 | 28 | 7 | – | – | – | – |
| CCN(CC)C1=NS(=O)(=O)C(C2CC(c3ccccc3C)=NO2)=C1c1ccc(OC)cc1 (stereo unspecified) | 22 | 2 | 0 | – | – | – | – |
| CCN(CC)C1=NS(=O)(=O)C(C2CC(c3c(C)cc(C)cc3C)=NO2)=C1c1ccc(OC)cc1 (stereo unspecified) | 21 | 50 | 25 | – | – | – | EC50 (Trypanosoma brucei): 10 µM; inhibition [4]: 0%; inhibition [5]: 66%; inhibition [6]: 15% |
| CCN(CC)C1=NS(=O)(=O)C(SC)=C1c1ccc(OC)cc1 | – | – | – | 7 | 36 | 5 | – |
| CCN(CC)C1=NS(=O)(=O)C(c2cc(-c3c(C)cc(C)cc3C)no2)=C1c1ccc(OC)cc1 | 8 | 0 | 11 | – | – | – | – |
| CCN(CC)C1=NS(=O)(=O)C(C2CC(c3ccc(OC)cc3)=NO2)=C1c1ccc(OC)cc1 (stereo unspecified) | 13 | 8 | 17 | – | – | – | – |
| CCN(CC)C1=NS(=O)(=O)C(SC2CCCCC2)=C1c1ccc(OC)cc1 | – | – | – | 52 | 20 | 6 | – |
| CCN(CC)C1=NS(=O)(=O)C(c2ccccc2)=C1c1ccc(OC)cc1 | – | – | – | 13 | 26 | 0 | – |
| CCOC1C(c2c(C)cc(C)cc2C)=NOC1C1=C(c2ccc(OC)cc2)C(N(CC)CC)=NS1(=O)=O (stereo unspecified) | 9 | 10 | 12 | – | – | – | – |
| CCN(CC)C1=NS(=O)(=O)C(c2cn(S(=O)(=O)c3ccccc3)c3ccccc23)=C1c1ccc(OC)cc1 | – | – | – | 29 | 25 | 5 | – |
| CCN(CC)C1=NS(=O)(=O)C(C#Cc2ccccc2)=C1c1ccc(OC)cc1 | – | 0 | – | – | – | – | inhibition [10]: 7%; inhibition [11]: 2% |
| CCN(CC)C1=NS(=O)(=O)C(C2CC(c3c(Cl)cccc3Cl)=NO2)=C1c1ccc(OC)cc1 (stereo unspecified) | 14 | 32 | 45 | – | – | – | – |
| CCN(CC)C1=NS(=O)(=O)C(c2ccccn2)=C1c1ccc(OC)cc1 | – | – | – | 12 | 7 | 3 | – |
| CCN(CC)C1=NS(=O)(=O)C(C2CC(c3ccc([N+](=O)[O-])cc3)=NO2)=C1c1ccc(OC)cc1 (stereo unspecified) | 18 | 2 | 8 | – | – | – | – |
| CCN(CC)C1=NS(=O)(=O)C(C)=C1c1ccc(OC)cc1 | – | – | – | 43 | 56 | 27 | – |
| CCN(CC)C1=NS(=O)(=O)C(Sc2ccccc2)=C1c1ccc(OC)cc1 | – | – | – | 62 | 17 | 5 | – |
| CCN(CC)C1=NS(=O)(=O)C(SC/C=C(\C)CC/C=C(/C)CCC=C(C)C)=C1c1ccc(OC)cc1 | – | – | – | 25 | 28 | 0 | – |
| CCN(CC)C1=NS(=O)(=O)C(C2CC(c3c(C)cccc3C)=NO2)=C1c1ccc(OC)cc1 (stereo unspecified) | 22 | 8 | 17 | – | – | – | – |

Source: ChEMBL document CHEMBL1134872, “Isothiazole dioxides: synthesis and inhibition of Trypanosoma brucei protein farnesyltransferase” (2002)
